Laboratory results: BindingDB's records for doi:10.1016/j.bmc.2013.02.056 (Ludwig-Maximilians-University Munich, 2013)

Experiments:
[1] = biological target: T1, Sodium- and chloride-dependent GABA transporter 3 (Mus musculus, UniProt P31650); assay: Inhibition of mouse GAT3 expressed in HEK cells assessed as inhibition of [3H]-GABA uptake after 25 mins by liquid scintillation counting analysis
T1 sequence (P31650 whole entry): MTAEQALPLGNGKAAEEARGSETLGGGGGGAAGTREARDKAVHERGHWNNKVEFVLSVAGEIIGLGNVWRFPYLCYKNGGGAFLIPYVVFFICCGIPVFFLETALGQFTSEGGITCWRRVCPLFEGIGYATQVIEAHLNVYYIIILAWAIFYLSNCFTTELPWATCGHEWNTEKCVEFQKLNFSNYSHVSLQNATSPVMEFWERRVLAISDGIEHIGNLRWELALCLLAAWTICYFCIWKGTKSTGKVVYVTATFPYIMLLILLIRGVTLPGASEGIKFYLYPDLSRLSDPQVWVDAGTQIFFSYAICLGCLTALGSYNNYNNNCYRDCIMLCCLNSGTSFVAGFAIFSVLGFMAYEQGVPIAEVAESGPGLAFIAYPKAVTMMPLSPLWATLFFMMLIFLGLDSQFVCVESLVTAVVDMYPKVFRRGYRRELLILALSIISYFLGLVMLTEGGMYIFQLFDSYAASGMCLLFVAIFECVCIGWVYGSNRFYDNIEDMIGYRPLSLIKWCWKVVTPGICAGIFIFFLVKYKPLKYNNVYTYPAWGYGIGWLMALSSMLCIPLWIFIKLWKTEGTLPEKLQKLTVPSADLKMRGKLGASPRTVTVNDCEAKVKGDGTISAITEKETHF

[2] = biological target: T2, Sodium- and chloride-dependent GABA transporter 2 (Mus musculus, UniProt P31649); assay: Inhibition of mouse GAT2 expressed in HEK cells assessed as inhibition of [3H]-GABA uptake after 25 mins by liquid scintillation counting analysis
T2 sequence (P31649 whole entry): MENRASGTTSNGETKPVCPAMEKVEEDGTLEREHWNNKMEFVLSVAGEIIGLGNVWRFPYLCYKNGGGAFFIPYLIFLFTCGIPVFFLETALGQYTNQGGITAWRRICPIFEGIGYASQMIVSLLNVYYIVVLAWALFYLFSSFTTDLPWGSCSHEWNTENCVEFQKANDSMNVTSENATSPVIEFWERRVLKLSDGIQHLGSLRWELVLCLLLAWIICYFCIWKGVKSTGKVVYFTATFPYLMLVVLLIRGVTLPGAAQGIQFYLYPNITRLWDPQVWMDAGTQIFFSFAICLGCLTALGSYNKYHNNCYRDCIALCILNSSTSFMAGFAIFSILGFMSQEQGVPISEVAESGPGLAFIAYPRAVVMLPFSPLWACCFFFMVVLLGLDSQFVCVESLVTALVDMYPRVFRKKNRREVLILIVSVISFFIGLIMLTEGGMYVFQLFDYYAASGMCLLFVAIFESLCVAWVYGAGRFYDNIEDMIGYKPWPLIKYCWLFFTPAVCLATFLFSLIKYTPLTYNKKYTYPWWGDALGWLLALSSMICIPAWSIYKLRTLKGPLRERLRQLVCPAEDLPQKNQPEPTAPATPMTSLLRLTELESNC

SMILES	IC50 [1] [µM]	IC50 [2] [µM]
O=C(O)C1CCCN(CCO/C=C\c2ccc(F)cc2Cc2ccc(F)cc2)C1 (centres undefined)	34.7	
O=C(c1ccccc1F)c1cc(F)ccc1/C=C\OCCN1CCCC(C(=O)O)C1 (centres undefined)		66.1
O=C(c1ccccc1F)c1cc(F)ccc1/C=C/OCCN1CCCC(C(=O)O)C1 (centres undefined)	372	141
O=C(O)C1CCCN(CCO/C=C\c2ccc(F)cc2Cc2ccccc2F)C1 (centres undefined)	19.5	
O=C(O)[C@@H]1CCCN(CCC=C(c2ccccc2)c2ccccc2)C1 [(R)-1-(4,4-Diphenyl-but-3-enyl)-piperidine-3-carboxylic acid]	195	372
O=C(O)C1CCCN(CCO/C=C/c2ccccc2Cc2ccccc2)C1 (centres undefined)	37.2	
O=C(O)C1CCCN(CCO/C=C\c2cc(F)ccc2Cc2ccc(F)cc2)C1 (centres undefined)	50.1	91.2
O=C(O)C1CCCN(CCO/C=C\c2cc(F)ccc2Cc2ccccc2F)C1 (centres undefined)	28.2	
O=C(O)C1CCCN(CCO/C=C\c2cc(F)ccc2Cc2cccc(F)c2)C1 (centres undefined)	20	
O=C(c1cccc(F)c1)c1ccc(F)cc1/C=C/OCCN1CCCC(C(=O)O)C1 (centres undefined)	339	60.3
